Results as given in patent publication US10570168B2, “2′ and/or 5′ amino-acid ester phosphoramidate 3′-deoxy adenosine derivatives as anti- cancer compounds” (NuCana plc, priority 2014, dated 2020).
Read-outs that look alike come from different tables or passages of the source.

Legend:
Type in all cases: cell-based
[1] = test system: RL; test: Solid tumour and haematological malignancy assay (CellTiterGlo); details: Homo sapiens; for IC50: read-out: IC50 (absolute IC50); for Emax: read-out: MI %
Procedure: (§1) In vitro viability assay were performed to assess the effects of compounds on cell viability in selected cell lines over 72 hr using the CellTiterGlo (CTG, Promega-G7573) assay. The tests were performed in duplicates with treatment of compounds at 9 points, 3.16 folds titration in 96 well plates over ˜72 hr. The compound starting concentrations were 198 mM. Cell viability assay using CellTiterGlo in 96-well plate were performed. Compound treatment 72 hrs, standard growth conditions, duplicates. Compounds were dissolved to 40 mM with thawed […]. Compounds were serially diluted at 3.16 fold in thawed DMSO, and warmed to 37° C. before being dissolved in media (20 μl+200 μl). After compounds were dissolved in media, media containing compounds were warmed to 37° C. in incubator and then compounds in media were added to cell plates ([…]) in duplicates. The compounds' final concentrations were from 198M to 19.9 nM. All compound solubilities were checked and recorded again, then the plates were transferred to CO2 tissue culture incubator immediately and incubated for 3 days. DMSO final concentration is 0.5%.

[2] = test system: MOLT-4; test: as above; details: Homo sapiens; for IC50: read-out: IC50 (absolute IC50); for Emax: read-out: MI %
Procedure: as §1

[3] = test system: NCI-H929; test: as above; details: Homo sapiens; for IC50: read-out: IC50 (absolute IC50); for Emax: read-out: MI %
Procedure: as §1

[4] = test system: K562; test: as above; details: Homo sapiens; for IC50: read-out: IC50 (absolute IC50); for Emax: read-out: MI %
Procedure: as §1, with “The tests were performed in duplicates with treatment of compounds at 9 points, 3.16 folds titration in 96 well plates over ˜72 hr. The compound starting concentrations were 198 mM.” left out, “Compounds were serially diluted at 3.16 fold in thawed DMSO, and warmed to 37° C. before being dissolved in media (20 μl+200 μl).” left out, “The compounds' final concentrations were from 198M to 19.9 nM.” left out

[5] = test system: MCF7; test: as above; details: Homo sapiens; for IC50: read-out: IC50 (absolute IC50); for Emax: read-out: MI %
Procedure: as §1, with “The tests were performed in duplicates with treatment of compounds at 9 points, 3.16 folds titration in 96 well plates over ˜72 hr. The compound starting concentrations were 198 mM.” left out, “Compounds were serially diluted at 3.16 fold in thawed DMSO, and warmed to 37° C. before being dissolved in media (20 μl+200 μl).” left out, “The compounds' final concentrations were from 198M to 19.9 nM.” left out

[6] = test system: KG-1; test: as above; details: Homo sapiens; for IC50: read-out: IC50 (absolute IC50); for Emax: read-out: MI %
Procedure: as §1, with “The tests were performed in duplicates with treatment of compounds at 9 points, 3.16 folds titration in 96 well plates over ˜72 hr. The compound starting concentrations were 198 mM.” left out, “Compounds were serially diluted at 3.16 fold in thawed DMSO, and warmed to 37° C. before being dissolved in media (20 μl+200 μl).” left out, “The compounds' final concentrations were from 198M to 19.9 nM.” left out

[7] = test system: HT29; test: as above; details: Homo sapiens; for IC50: read-out: IC50 (absolute IC50); for Emax: read-out: MI %
Procedure: as §1, with “The tests were performed in duplicates with treatment of compounds at 9 points, 3.16 folds titration in 96 well plates over ˜72 hr. The compound starting concentrations were 198 mM.” left out, “Compounds were serially diluted at 3.16 fold in thawed DMSO, and warmed to 37° C. before being dissolved in media (20 μl+200 μl).” left out, “The compounds' final concentrations were from 198M to 19.9 nM.” left out

[8] = test system: CCRFCEM; test: as above; details: Homo sapiens, CCRF-CEM; for IC50: read-out: IC50 (absolute IC50); for Emax: read-out: MI %
Procedure: as §1, with “The tests were performed in duplicates with treatment of compounds at 9 points, 3.16 folds titration in 96 well plates over ˜72 hr. The compound starting concentrations were 198 mM.” left out, “Compounds were serially diluted at 3.16 fold in thawed DMSO, and warmed to 37° C. before being dissolved in media (20 μl+200 μl).” left out, “The compounds' final concentrations were from 198M to 19.9 nM.” left out

[9] = test system: K562; test: CellTiterGlo viability assay, initial screening; details: Homo sapiens, read-out: IC50 (relative IC50)
Procedure: (§2) In vitro viability assays were performed to assess the effects of compounds on cell viability in 7 selected cell lines over 72 hr using the CellTiterGlo (CTG, Promega-G7573) assay. The tests were performed in duplicates with treatment of compounds at 9 points, 3.16 folds titration in 96 well plates over ˜72 hr. The compound starting concentrations were […]. Cell viability assay using CellTiterGlo in 96-well plate were performed. The compound treatment was 72 hrs, under standard growth conditions, and in duplicate. Compounds were dissolved to 40 mM with thawed […]. Compounds were serially diluted at 3.16 fold in thawed DMSO, and warmed to 37° C. before being dissolved in media (2 μl+200 μl). After compounds were dissolved in media (media was also warmed to 37° C.). Media containing compounds were warmed to 37° C. in incubator and then compounds in media were added to cell plates (50 μl+50 μl), in duplicates. The compounds final concentrations were from […] to 19.9 nM. All compound solubilities were checked and recorded again, then the plates were transferred to CO2 tissue culture incubator immediately and incubated for 3 days. DMSO final concentration is 0.5%.

[10] = test system: HL-60; test: CellTiterGlo viability assay, initial screening; details: Homo sapiens, read-out: IC50 (relative IC50)
Procedure: as §2

[11] = test system: MOLT-4; test: CellTiterGlo viability assay, initial screening; details: Homo sapiens, read-out: IC50 (relative IC50)
Procedure: as §2

[12] = test system: KG-1; test: CellTiterGlo viability assay, initial screening; details: Homo sapiens, read-out: IC50 (relative IC50)
Procedure: as §2

[13] = test system: HepG2; test: CellTiterGlo viability assay, initial screening; details: Homo sapiens, read-out: IC50 (relative IC50)
Procedure: as §2

[14] = test system: CCRF-CEM; test: CellTiterGlo viability assay, initial screening; details: Homo sapiens, read-out: IC50 (relative IC50)
Procedure: as §2

[15] = test system: MCF-7; test: CellTiterGlo viability assay, initial screening; details: Homo sapiens, read-out: IC50 (relative IC50)
Procedure: as §2

Row | Structure (SMILES) | IC50 ([1]; 72 h) | IC50 ([2]; MOLT-4, 72 h) | IC50 ([3]; NCI-H929, 72 h) | IC50 ([4]; K562, 72 h) | IC50 ([5]; MCF7, 72 h) | IC50 ([6]; KG-1, 72 h) | IC50 ([7]; HT-29, 72 h) | IC50 ([8]; 72 h) | IC50 ([9]; K562, 72 h) | IC50 ([10]; HL-60, 72 h) | IC50 ([11]; MOLT-4, 72 h) | IC50 ([12]; KG-1, 72 h) | IC50 ([13]; HepG2, 72 h) | IC50 ([14]; 72 h) | IC50 ([15]; MCF7, 72 h) | also measured
1 | CCCCCCOC(=O)[C@H](C)NP(=O)(OC[C@@H]1C[C@H](O)[C@H](n2cnc3c(N)nc(OC)nc32)O1)Oc1ccccc1 (stereo partly drawn) [Compound N, 2-O-methyl-3′-deoxyadenosine-5′-O-[phenyl(1-hexyloxy-L-alaninyl)] phosphate] | 15 to 100 µM | 15 to 100 µM | 15 to 100 µM | 15 to 100 µM | 15 to 100 µM | 15 to 100 µM | 15 to 100 µM | 15 to 100 µM |  |  |  |  |  |  |  | Emax ([1]; 72 h): 88%; Emax ([2]; MOLT-4, 72 h): 97%; Emax ([3]; NCI-H929, 72 h): 99%; Emax ([4]; K562, 72 h): 78%; Emax ([5]; MCF7, 72 h): 73%; Emax ([6]; KG-1, 72 h): 96%; Emax ([7]; HT-29, 72 h): 69%; Emax ([8]; 72 h): 93%
2 | COc1nc(N)c2ncn([C@@H]3O[C@H](COP(=O)(N[C@@H](C)C(=O)OCc4ccccc4)Oc4cccc5ccccc45)C[C@H]3O)c2n1 (stereo partly drawn) [K] | 15 to 100 µM | 15 to 100 µM | 5 to 15 µM | 15 to 100 µM | 5 to 15 µM | 15 to 100 µM | 15 to 100 µM | 5 to 15 µM |  |  |  |  |  |  |  | 
3 | C[C@H](NP(=O)(Oc1ccccc1)O[C@@H]1C[C@@H](CO)O[C@H]1n1cnc2c(N)ncnc21)C(=O)OCc1ccccc1 (stereo partly drawn) [G, (2S)-benzyl 2-(((((2R,3R,5S)-2-(6-amino-9H-purin-9-yl)-5-(hydroxymethyl)tetrahydro-furan-3-yl)oxy)(phenoxy)phosphoryl)amino)propanoate] |  |  |  |  |  |  |  |  | 15 to 100 µM | 15 to 100 µM | 15 to 100 µM | 15 to 100 µM | 15 to 100 µM | 15 to 100 µM | 5 to 15 µM | 
4 | CCCCCOC(=O)[C@H](CC(C)C)NP(=O)(OC[C@@H]1C[C@H](O)[C@H](n2cnc3c(N)nc(OC)nc32)O1)Oc1cccc2ccccc12 (stereo partly drawn) [Compound M] | 5 to 15 µM | 5 to 15 µM | 5 to 15 µM | 5 to 15 µM | 15 to 100 µM | 15 to 100 µM | 15 to 100 µM | 5 to 15 µM |  |  |  |  |  |  |  | Emax ([1]; 72 h): 100%; Emax ([2]; MOLT-4, 72 h): 101%; Emax ([3]; NCI-H929, 72 h): 99%; Emax ([4]; K562, 72 h): 100%; Emax ([5]; MCF7, 72 h): 100%; Emax ([6]; KG-1, 72 h): 102%; Emax ([7]; HT-29, 72 h): 100%; Emax ([8]; 72 h): 100%
5 | COc1nc(N)c2ncn([C@@H]3O[C@H](CO)C[C@H]3O)c2n1 [2-OMe-Cordycepin, 3′-deoxy-2-methoxyadenosine, reference compound] |  |  |  |  |  |  |  |  |  |  |  |  |  |  |  | IC50 ([1]; 72 hr): > 100 µM; Emax ([1]; 72 hr): 0%; IC50 ([2]; MOLT-4, 72 hr): > 100 µM; Emax ([2]; MOLT-4, 72 hr): 1%; IC50 ([3]; NCI-H929, 72 hr): > 100 µM; Emax ([3]; NCI-H929, 72 hr): 51%; IC50 ([4]; K562, 72 hr): > 100 µM; Emax ([4]; K562, 72 hr): 40%; IC50 ([5]; MCF7, 72 hr): > 100 µM; Emax ([5]; MCF7, 72 hr): 8%; IC50 ([6]; KG-1, 72 hr): > 100 µM; Emax ([6]; KG-1, 72 hr): 1%; IC50 ([7]; HT-29, HT29, 72 hr): > 100 µM; Emax ([7]; HT-29, HT29, 72 hr): 19%; IC50 ([8]; CCRFCEM, 72 hr): > 100 µM; Emax ([8]; CCRFCEM, 72 hr): -4%
6 | C[C@H](NP(=O)(Oc1cccc2ccccc12)O[C@@H]1C[C@@H](CO)O[C@H]1n1cnc2c(N)ncnc21)C(=O)OCc1ccccc1 (stereo partly drawn) [Compound I, (2S)-benzyl 2-(((((2R,3R,5S)-2-(6-amino-9H-purin-9-yl)-5-(hydroxymethyl)tetrahydro-furan-3-yl)oxy)(naphthalen-1-yloxy)phosphoryl)amino)propanoate] |  |  |  |  |  |  |  |  | 15 to 100 µM | 15 to 100 µM | 15 to 100 µM | 15 to 100 µM | 15 to 100 µM | 15 to 100 µM | 5 to 15 µM | 
7 | C[C@H](NP(=O)(OC[C@@H]1C[C@@H](OP(=O)(N[C@@H](C)C(=O)OCc2ccccc2)Oc2ccccc2)[C@H](n2cnc3c(N)ncnc32)O1)Oc1ccccc1)C(=O)OCc1ccccc1 (stereo partly drawn) [H, Benzyl 2-(((((2S,4R,5R)-5-(6-amino-9H-purin-9-yl)-4-((((1-(benzyloxy)-1-oxopropan-2-yl)amino)(phenoxy)phosphoryl)oxy)tetrahydrofuran-2-yl)methoxy)(phenoxy)phosphoryl)-amino)propanoate] |  |  |  |  |  |  |  |  | 15 to 100 µM | 15 to 100 µM | 15 to 100 µM | 15 to 100 µM | 5 to 15 µM | 15 to 100 µM | 0.1 to 5 µM | 
8 | C[C@H](NP(=O)(N[C@@H](C)C(=O)OCc1ccccc1)OC[C@@H]1CC(O)[C@H](n2cnc3c(N)ncnc32)O1)C(=O)OCc1ccccc1 (stereo in doubt) [Compound J, Benzyl 2-[({[5-(6-amino-9H-purin-9-yl)-4-hydroxyoxolan-2-yl]methoxy}({[1-(benzyloxy)-1-oxopropan-2-yl]amino})phosphoryl)amino]propanoate] |  |  |  |  |  |  |  |  |  |  |  |  |  |  |  | IC50 ([9]; K562, 72 hr): 15 to 100 µM; IC50 ([10]; HL-60, 72 hr): 15 to 100 µM; IC50 ([11]; MOLT-4, 72 hr): 0.1 to 5 µM; IC50 ([12]; KG-1, 72 hr): 15 to 100 µM; IC50 ([13]; HepG2, 72 hr): 15 to 100 µM; IC50 ([14]; 72 hr): 15 to 100 µM; IC50 ([15]; MCF7, MCF-7, 72 hr): 15 to 100 µM
